Results published in patent US12577219B2, “Macrolide brefeldin a ester derivatives and use thereof” (OCEAN UNIVERSITY OF CHINA, priority 2019, dated 2026).
In brackets after ≈: the same amount, converted by molar mass.

Columns and labels:
[1] = Solubility test (shaker 37° C., 24 h, HPLC); settings: 37 °C, thermodynamic from solid
Method: The term “solubility” refers to the mass of solute dissolved when a solid substance reaches saturation state in 100 g solvent at a certain temperature.
Methods: Excess BFA and the compounds disclosed herein were added to 10 mL of three solvents, methanol, acetone and 5% DMSO+95% H2O, respectively, and shaken on a shaker at 37° C. at 100 r/min for 24 h. After 24 h, the samples were centrifuged at 15,000 r/min for 15 min to remove the undissolved compounds. The supernatant was filtered using a 0.45 μm membrane filter. The supernatant was appropriately diluted with methanol and contents of the compounds were determined by HPLC method to calculate the solubility.

[2] = test system: esophageal cancer Eca-109 cells; assay: Cell proliferation assay (CCK-8); assay type: cell-based, human; settings: Eca-109, 72 h
Description: (§1) CCK-8 method: The CCK-8 method is a highly sensitive, non-radioactive colorimetric assay for the determination of the number of viable cells in cell proliferation or cytotoxicity assays. The orange formazan dye produced by the bioreduction of CCK-8 by intracellular dehydrogenase is soluble in the cell culture medium, and the amount of formazan dye produced is proportional to the number of living cells. The kit used in this method is the tetrazolium salt-WST-8 (2-(2-methoxy-4-nitrophenyl)-3-(4-nitrophenyl)-5-(2,4-disulfophenyl)-2H-tetrazolium monosodium salt) developed by Dojindo Chemical Research Institute (Dojindo), which is capable of being reduced to a water-soluble formazan dye in the presence of the electronic carrier 1-Methoxy PMS.
(§2) Human cervical cancer Hela cells, pancreatic cancer PANC-1cells, esophageal cancer Eca-109 cells, human leukemia K562 cells, human lung cancer A549 cells, human liver cancer HepG2 cells, human gastric cancer MKN-45 cells, human breast cancer MCF7 cells were cultured in DMEM medium containing 10% FBS (fetal bovine serum), 100 U/mL penicillin and 100 μg/ml streptomycin. Hepatocellular carcinoma cells Bel-7402 were cultured in RPMI-1640 medium containing 10% FBS (fetal bovine serum), 100 U/ml penicillin and 100 μg/ml streptomycin. All cells were placed in a cell culture incubator at 37° C. with 5% CO2. Cells fluid was changed every 3-5 days, and after 80% cell fusion, trypsin digestion and passaging were performed to keep the cells in good logarithmic growth phase.
(§3) All the samples to be tested were dissolved in DMSO.
(§4) Cells in logarithmic growth phase were inoculated in 96-well plates with 5000 cells/well respectively, and after 24 h of incubation, samples were added (final concentrations as shown in the table), and biplicate wells were set up for each sample. The amount of solvent of DMSO was not higher than 2%. After 72 h, 10 μL of CCK-8 solution was added to each well and incubated for 1.5˜3 h at 37° C. The OD value at 450 nm was measured on an plate reader. Inhibition rate (%)=(1−[(OD450 dosed well−OD450 blank well)/(OD450 control well−OD450 blank well)])×100%
(§5) The fitted IC50 values were calculated using the log (inhibitor) vs. response—Variable slop analysis method in GraphPad Prism software.

[3] = test system: pancreatic cancer PANC-1cells; assay: Cell proliferation assay (CCK-8); assay type: cell-based, human; settings: PANC-1, 72 h
Description: as §1, §2, §3, §4, §5

[4] = test system: Human cervical cancer Hela cells; assay: Cell proliferation assay (CCK-8); assay type: cell-based; settings: 72 h
Description: as §1, §2, §3, §4, §5

[5] = test system: human lung cancer A549 cells; assay: Cell proliferation assay (CCK-8); assay type: cell-based; settings: A549, 72 h
Description: as §1, §2, §3, §4, §5

[6] = test system: human leukemia K562 cells; assay: Cell proliferation assay (CCK-8); assay type: cell-based; settings: K562, 72 h
Description: as §1, §2, §3, §4, §5

[7] = test system: human liver cancer HepG2 cells; assay: Cell proliferation assay (CCK-8); assay type: cell-based; settings: HepG2, 72 h
Description: as §1, §2, §3, §4, §5

[8] = test system: human breast cancer MCF7 cells; assay: Cell proliferation assay (CCK-8); assay type: cell-based; settings: MCF7, 72 h
Description: as §1, §2, §3, §4, §5

[9] = test system: human gastric cancer MKN-45 cells; assay: Cell proliferation assay (CCK-8); assay type: cell-based; settings: MKN-45, 72 h
Description: as §1, §2, §3, §4, §5

Kunming breed mice = assay: Toxicity test after intraperitoneal administration to mice; assay type: in vivo; settings: ip.; for Organ abnormality at anatomy: anatomy on the 14 th day; for Mental condition of the animals after administration: high and low doses; for Deaths after administration: high and low doses (BFA effective amount conversion), 14 d
Description: Objective: Observation of toxic effects of compounds after intraperitoneally administration (ip.) to mice
1) Agents: Compounds disclosed herein were formulated to a suitable concentration.
2) Animals: Kunming breed mice, weight 18-22 g, male. Provided by Jinan Pengyue Laboratory Animal Breeding Co., Ltd. Animal license number: SCXK (Shandong 20140007)
Method: Kunming breed mice, were randomly grouped by weight, 6 mice per group, namely normal control group, BFA high and low dose groups (100 mg/kg and 50 mg/kg, respectively), and high and low dose groups of some compounds disclosed herein (BFA effective amount conversion). […] After 14 d of continuous administration, all the animals were weighed, and the animals were executed to observe whether there were any abnormalities in the organs.

[10] = 5% DMSO + 95% H2O, aqueous with cosolvent or surfactant or cyclodextrin
[11] = acetone, organic solvent or mixture
[12] = methanol, organic solvent or mixture

C[C@H]1CCC/C=C/[C@@H]2C[C@H](OC(=O)/C=C/c3ccccc3)C[C@H]2[C@H](OC(=O)/C=C/c2ccccc2)/C=C/C(=O)O1 [Compound C]
solubility at 24 h [1, 10]: 100 ± 230 µg/mL | solubility at 24 h [1, 11]: 5360 ± 3130 µg/mL (≈ 9.91 mM) | solubility at 24 h [1, 12]: 5300 ± 2510 µg/mL (≈ 9.8 mM) | IC50 ([2]; Homo sapiens): 1000 to 10000 nM | IC50 ([3]; Homo sapiens): 1000 to 10000 nM | IC50 ([4]; Homo sapiens): 1000 to 10000 nM | IC50 ([5]; Homo sapiens): 1000 to 10000 nM | IC50 ([6]; Homo sapiens): 1000 to 10000 nM | IC50 ([7]; Homo sapiens): 1000 to 10000 nM | IC50 ([8]; Homo sapiens): 1000 to 10000 nM | IC50 ([9]; Homo sapiens): 1000 to 10000 nM

C[C@H]1CCC/C=C/[C@@H]2C[C@H](OC(=O)/C=C/c3cccc(F)c3)C[C@H]2[C@H](OC(=O)/C=C/c2cccc(F)c2)/C=C/C(=O)O1 [Compound 1c, 4,7-O-bis(3-fluorocinnamic acid)acyl BFA]
Organ abnormality at anatomy (Kunming breed mice): no significant abnormality in all organs | Mental condition of the animals after administration (Kunming breed mice): good mental condition | Deaths after administration (Kunming breed mice): no deaths

C[C@H]1CCC/C=C/[C@@H]2C[C@H](O)C[C@H]2[C@H](OC(=O)/C=C/c2cccnc2)/C=C/C(=O)O1 [Compound 16b]
Organ abnormality at anatomy (Kunming breed mice): no significant abnormality in all organs | Mental condition of the animals after administration (Kunming breed mice): good mental condition | Deaths after administration (Kunming breed mice): no deaths

C[C@H]1CCC/C=C/[C@@H]2C[C@H](OC(=O)/C=C/c3cnc4ccccc4c3)C[C@H]2[C@H](OC(=O)/C=C/c2cnc3ccccc3c2)/C=C/C(=O)O1 [Compound 17c]
IC50 [2]: 1000 to 10000 nM | IC50 [3]: 100 to 1000 nM | IC50 [4]: 1000 to 10000 nM | IC50 [5]: 1000 to 10000 nM | IC50 [6]: 100 to 1000 nM | IC50 [7]: 100 to 1000 nM | IC50 [8]: 100 to 1000 nM | IC50 [9]: 1000 to 10000 nM

C[C@H]1CCC/C=C/[C@@H]2C[C@H](O)C[C@H]2[C@H](OC(=O)/C=C/c2ccc(N(C)C)cc2)/C=C/C(=O)O1 [Compound 10b, 4-O-(4-dimethylaminocinnamic acid)acyl BFA]
Organ abnormality at anatomy (Kunming breed mice): no significant abnormality in all organs | Mental condition of the animals after administration (Kunming breed mice): good mental condition | Deaths after administration (Kunming breed mice): no deaths

C[C@H]1CCC/C=C/[C@@H]2C[C@H](O)C[C@H]2[C@H](OC(=O)/C=C/c2ccccc2)/C=C/C(=O)O1 [Compound B]
solubility at 24 h [1, 10]: 220 ± 160 µg/mL | solubility at 24 h [1, 11]: 9480 ± 3230 µg/mL (≈ 23.1 mM) | solubility at 24 h [1, 12]: 9410 ± 1510 µg/mL (≈ 22.9 mM) | IC50 ([2]; Homo sapiens): 1000 to 10000 nM | IC50 ([3]; Homo sapiens): 100 to 1000 nM | IC50 ([4]; Homo sapiens): 1000 to 10000 nM | IC50 ([5]; Homo sapiens): 1000 to 10000 nM | IC50 ([6]; Homo sapiens): 100 to 1000 nM | IC50 ([7]; Homo sapiens): 1000 to 10000 nM | IC50 ([8]; Homo sapiens): 100 to 1000 nM | IC50 ([9]; Homo sapiens): 1000 to 10000 nM

C[C@H]1CCC/C=C/[C@@H]2C[C@H](O)C[C@H]2[C@H](OC(=O)/C=C/c2ccc3c(c2)OCO3)/C=C/C(=O)O1 [Compound 9b, 4-O-((E)-3-(benzo[d][1,3]dioxa-5-yl)acrylic acid)acyl BFA]
IC50 [2]: 1000 to 10000 nM | IC50 [3]: 100 to 1000 nM | IC50 [4]: 1000 to 10000 nM | IC50 [5]: 100 to 1000 nM | IC50 [6]: 100 to 1000 nM | IC50 [7]: 1000 to 10000 nM | IC50 [8]: 100 to 1000 nM | IC50 [9]: 100 to 1000 nM

C[C@H]1CCC/C=C/[C@@H]2C[C@H](OC(=O)/C=C/c3cccnc3)C[C@H]2[C@H](OC(=O)/C=C/c2cccnc2)/C=C/C(=O)O1 [Compound 16c]
Organ abnormality at anatomy (Kunming breed mice): no significant abnormality in all organs | Mental condition of the animals after administration (Kunming breed mice): good mental condition | Deaths after administration (Kunming breed mice): no deaths
